Laboratory results reported in the NIST ThermoML archive (doi:10.1021/je060271a).
± gives the expanded uncertainty stated by the source.

Details: 343.15 K, Liquid, Vibrating tube method

CCCCCCC(=O)OCC(COC(=O)CCCCCC)(COC(=O)CCCCCC)COC(=O)CCCCCC [pentaerythritol tetraheptanoate]
Details	mass density [kg/m3]
7850.3 kPa	946.4 ± 1.2
7873.8 kPa	946.5 ± 1.2
7893.3 kPa	946.5 ± 1.2
7913.5 kPa	946.6 ± 1.2
7937 kPa	946.6 ± 1.2
7957 kPa	946.6 ± 1.2
7977.2 kPa	946.6 ± 1.2
8001.2 kPa	946.6 ± 1.2
8021.7 kPa	946.5 ± 1.2
8042.2 kPa	946.6 ± 1.2
8067.3 kPa	946.5 ± 1.2
8088 kPa	946.6 ± 1.2
8109.4 kPa	946.6 ± 1.2
8130.2 kPa	946.6 ± 1.2
8151.8 kPa	946.6 ± 1.2
8177.7 kPa	946.8 ± 1.2
8199.3 kPa	946.8 ± 1.2
8220.8 kPa	946.7 ± 1.2
8246.2 kPa	946.7 ± 1.2
8268.1 kPa	946.7 ± 1.2
8290 kPa	946.7 ± 1.2
8311.6 kPa	946.9 ± 1.2
8338.1 kPa	946.7 ± 1.2
8361.6 kPa	946.7 ± 1.2
8384.3 kPa	946.8 ± 1.2
8406.7 kPa	946.8 ± 1.2
8433.8 kPa	946.9 ± 1.2
8456.2 kPa	946.9 ± 1.2
8479.4 kPa	946.9 ± 1.2
8502.3 kPa	946.8 ± 1.2
8530.3 kPa	946.9 ± 1.2
8553.5 kPa	946.9 ± 1.2
8577.2 kPa	946.9 ± 1.2
8605.4 kPa	947 ± 1.2
8629.1 kPa	947 ± 1.2
8653.2 kPa	947 ± 1.2
8683.2 kPa	947 ± 1.2
8702.1 kPa	947.2 ± 1.2
8731.5 kPa	947.1 ± 1.2
8755.6 kPa	947.1 ± 1.2
8780.3 kPa	947.2 ± 1.2
8809.9 kPa	947.1 ± 1.2
8834.4 kPa	947.2 ± 1.2
8864.2 kPa	947.3 ± 1.2
8889.4 kPa	947.1 ± 1.2
8914.2 kPa	947.2 ± 1.2
8939.2 kPa	947.2 ± 1.2
8970.1 kPa	947.3 ± 1.2
8995.6 kPa	947.2 ± 1.2
9022.5 kPa	947.3 ± 1.2
9053.7 kPa	947.3 ± 1.2
9079.4 kPa	947.3 ± 1.2
9110.6 kPa	947.5 ± 1.2
9136.4 kPa	947.5 ± 1.2
9163.7 kPa	947.4 ± 1.2
9195.6 kPa	947.5 ± 1.2
9222.6 kPa	947.5 ± 1.2
9249.7 kPa	947.4 ± 1.2
9282.3 kPa	947.4 ± 1.2
9309.7 kPa	947.4 ± 1.2
9337.9 kPa	947.6 ± 1.2
9371.4 kPa	947.5 ± 1.2
9400.1 kPa	947.5 ± 1.2
9428.6 kPa	947.6 ± 1.2
9456.7 kPa	947.6 ± 1.2
9491 kPa	947.7 ± 1.2
9519.9 kPa	947.6 ± 1.2
9549 kPa	947.8 ± 1.2
9584 kPa	947.6 ± 1.2
9613.7 kPa	947.9 ± 1.2
9649.3 kPa	947.7 ± 1.2
9679.5 kPa	947.8 ± 1.2
9709.5 kPa	947.9 ± 1.2
9739.8 kPa	947.8 ± 1.2
9777.3 kPa	947.7 ± 1.2
9809 kPa	947.8 ± 1.2
9840.2 kPa	947.9 ± 1.2
9878.1 kPa	948 ± 1.2
9910.3 kPa	947.8 ± 1.2
9943.2 kPa	947.8 ± 1.2
9983.2 kPa	948 ± 1.2
10018 kPa	947.9 ± 1.2
10052 kPa	947.9 ± 1.2
10080 kPa	948.1 ± 1.2
10104 kPa	948.1 ± 1.2
10124 kPa	948 ± 1.2
10144 kPa	948 ± 1.2
10169 kPa	948.1 ± 1.2
10189 kPa	948.2 ± 1.2
10207 kPa	948.2 ± 1.2
10224 kPa	948.1 ± 1.2
10244 kPa	948.2 ± 1.2
10261 kPa	948.2 ± 1.2
10281 kPa	948.2 ± 1.2
10298 kPa	948.3 ± 1.2
10315 kPa	948.2 ± 1.2
10335 kPa	948.2 ± 1.2
10352 kPa	948.3 ± 1.2
10370 kPa	948.3 ± 1.2
10390 kPa	948.3 ± 1.2
10408 kPa	948.2 ± 1.2
10425 kPa	948.3 ± 1.2
10445 kPa	948.3 ± 1.2
10463 kPa	948.3 ± 1.2
10481 kPa	948.2 ± 1.2
10502 kPa	948.4 ± 1.2
10520 kPa	948.3 ± 1.2
10537 kPa	948.3 ± 1.2
10558 kPa	948.4 ± 1.2
10576 kPa	948.3 ± 1.2
10594 kPa	948.4 ± 1.2
10613 kPa	948.5 ± 1.2
10635 kPa	948.4 ± 1.2
10655 kPa	948.5 ± 1.2
10673 kPa	948.4 ± 1.2
10692 kPa	948.5 ± 1.2
10710 kPa	948.5 ± 1.2
10732 kPa	948.5 ± 1.2
10750 kPa	948.5 ± 1.2
10769 kPa	948.6 ± 1.2
10791 kPa	948.6 ± 1.2
10810 kPa	948.6 ± 1.2
10832 kPa	948.8 ± 1.2
10851 kPa	948.6 ± 1.2
10870 kPa	948.6 ± 1.2
10893 kPa	948.6 ± 1.2
10909 kPa	948.6 ± 1.2
10932 kPa	948.7 ± 1.2
10951 kPa	948.6 ± 1.2
10975 kPa	948.7 ± 1.2
10994 kPa	948.7 ± 1.2
11014 kPa	948.7 ± 1.2
11033 kPa	948.8 ± 1.2
11056 kPa	948.7 ± 1.2
11076 kPa	948.8 ± 1.2
11096 kPa	948.8 ± 1.2
11120 kPa	948.9 ± 1.2
11140 kPa	948.8 ± 1.2
11160 kPa	948.7 ± 1.2
11184 kPa	948.8 ± 1.2
11204 kPa	948.8 ± 1.2
11224 kPa	948.8 ± 1.2
11245 kPa	948.8 ± 1.2
11269 kPa	948.8 ± 1.2
11289 kPa	948.9 ± 1.2
11310 kPa	949 ± 1.2
11335 kPa	948.8 ± 1.2
11356 kPa	948.9 ± 1.2
11380 kPa	948.8 ± 1.2
11401 kPa	949.1 ± 1.2
11422 kPa	948.9 ± 1.2
11447 kPa	949 ± 1.2
11469 kPa	949.1 ± 1.2
11490 kPa	949 ± 1.2
11511 kPa	948.9 ± 1.2
11537 kPa	949.2 ± 1.2
11558 kPa	949.1 ± 1.2
11584 kPa	949.2 ± 1.2
11606 kPa	949.1 ± 1.2
11627 kPa	949.2 ± 1.2
11649 kPa	949 ± 1.2
11675 kPa	949.3 ± 1.2
11697 kPa	949.1 ± 1.2
11719 kPa	949.2 ± 1.2
11746 kPa	949.3 ± 1.2
11768 kPa	949.2 ± 1.2
11794 kPa	949.3 ± 1.2
11817 kPa	949.3 ± 1.2
11840 kPa	949.2 ± 1.2
11862 kPa	949.3 ± 1.2
11889 kPa	949.4 ± 1.2
11911 kPa	949.2 ± 1.2
11939 kPa	949.3 ± 1.2
11962 kPa	949.5 ± 1.2
11985 kPa	949.4 ± 1.2
12012 kPa	949.4 ± 1.2
12036 kPa	949.4 ± 1.2
12060 kPa	949.5 ± 1.2
12088 kPa	949.5 ± 1.2
12112 kPa	949.3 ± 1.2
12136 kPa	949.5 ± 1.2
12159 kPa	949.5 ± 1.2
12188 kPa	949.5 ± 1.2
12212 kPa	949.6 ± 1.2
12241 kPa	949.5 ± 1.2
12265 kPa	949.6 ± 1.2
12290 kPa	949.5 ± 1.2
12314 kPa	949.6 ± 1.2
12344 kPa	949.5 ± 1.2
12368 kPa	949.6 ± 1.2
12394 kPa	949.7 ± 1.2
12424 kPa	949.8 ± 1.2
12449 kPa	949.7 ± 1.2
12474 kPa	949.9 ± 1.2
12504 kPa	949.7 ± 1.2
12530 kPa	949.7 ± 1.2
12555 kPa	949.8 ± 1.2
12581 kPa	949.7 ± 1.2
12612 kPa	949.9 ± 1.2
12638 kPa	949.9 ± 1.2
12664 kPa	949.8 ± 1.2
12695 kPa	949.8 ± 1.2
12722 kPa	950 ± 1.2
12750 kPa	949.9 ± 1.2
12776 kPa	950 ± 1.2
12803 kPa	949.8 ± 1.2
12834 kPa	950.1 ± 1.2
12861 kPa	950.1 ± 1.2
12894 kPa	950 ± 1.2
12921 kPa	950.1 ± 1.2
12948 kPa	950 ± 1.2
12975 kPa	950 ± 1.2
13007 kPa	950.1 ± 1.2
13035 kPa	950.2 ± 1.2
13069 kPa	950.1 ± 1.2
13098 kPa	950.1 ± 1.2
13127 kPa	950.2 ± 1.2
13155 kPa	950.2 ± 1.2
13189 kPa	950.3 ± 1.2
13217 kPa	950.3 ± 1.2
13246 kPa	950.3 ± 1.2
13275 kPa	950.3 ± 1.2
13311 kPa	950.4 ± 1.2
